Counter-ions that a name gives are not always drawn. Like-named read-outs stand apart in the source and are kept apart here.

The assay deals with Dengue-2 (Strain New Guinea C). Description: Viral yield assay against Dengue-2 in Vero cells. In kind it is cell-based, Dengue virus. As to conditions: Dengue virus, read-out: Activity (EC50 class) against Dengue-2 Virus in Vero cells. As to the method: Compounds that were active in the primary screen were tested for activity in viral yield assays. […] Vero cells in 12-well plates were infected with dengue-2 virus at a multiplicity of infection (MOI) of 0.1, treated with compound (or DMSO as a control), incubated at 37° C., harvested 48 hours post infection and titered on Vero cells as described above. The EC50 was calculated through ExcelFit. Activities against other serotypes of dengue virus were determined in a similar way.

Setting [1] is: Vero cells, MOI 0.1, harvested 48 hours post infection.

On to `Cc1ccccc1NC(=O)c1sc2nc3c(c(-c4cccs4)c2c1N)CN(C)CC3` [Compound 27, 3-Amino-6-methyl-4-thiophen-2-yl-5,6,7,8-tetrahydro-thieno[2,3-b][1,6]naphthyridine-2-carboxylic acid o-tolylamide], for which the EC50 under setting [1] was under 5 µM.

As for `COc1ccc(NC(=O)c2sc3nc4c(c(-c5cccs5)c3c2N)CN(C)CC4)cc1` [Compound 28, 3-Amino-6-methyl-4-thiophen-2-yl-5,6,7,8-tetrahydro-thieno[2,3-b][1,6]naphthyridine-2-carboxylic acid (4-methoxy-phenyl)-amide], the EC50 under setting [1] is under 5 µM.

Turning to `CN1CCc2nc3sc(C(=O)Nc4ccc(F)cc4)c(N)c3cc2C1` [Compound 29, 3-Amino-6-methyl-5,6,7,8-tetrahydro-thieno[2,3-b][1,6]naphthyridine-2-carboxylic acid (4-fluoro-phenyl)-amide], the EC50 under setting [1] was under 5 µM.

Take `CN1CCc2nc3sc(C(=O)Nc4ccc(OC(F)(F)F)cc4)c(N)c3cc2C1` [Compound 30, 3-Amino-6-methyl-5,6,7,8-tetrahydro-thieno[2,3-b][1,6]naphthyridine-2-carboxylic acid (4-trifluoromethoxy-phenyl)-amide]: the concentration for a half-maximal effect (EC50) under setting [1] was under 5 µM.

For the compound `COc1ccc(Cl)cc1NC(=O)c1sc2nc3c(cc2c1N)CN(Cc1ccccc1)CC3` [Compound 31, 3-Amino-6-benzyl-5,6,7,8-tetrahydro-thieno[2,3-b][1,6]naphthyridine-2-carboxylic acid (5-chloro-2-methoxy-phenyl)-amide], under setting [1], the EC50 was under 5 µM.

For `CN1CCc2nc3sc(C(=O)NCCc4c[nH]c5ccccc45)c(N)c3cc2C1` [Compound 32, 3-Amino-6-methyl-5,6,7,8-tetrahydro-thieno[2,3-b][1,6]naphthyridine-2-carboxylic acid [2-(1H-indol-3-yl)-ethyl]-amide], the EC50 under setting [1] is under 5 µM.

On to `CN1CCc2nc3sc(C(=O)Nc4ccc5c(c4)OCO5)c(N)c3cc2C1` [Compound 33, 3-Amino-6-methyl-5,6,7,8-tetrahydro-thieno[2,3-b][1,6]naphthyridine-2-carboxylic acid benzo[1,3]dioxol-5-ylamide], for which the EC50 under setting [1] is under 5 µM.

For `CN1CCc2nc3sc(C(=O)Nc4ccccc4)c(N)c3c(-c3cccs3)c2C1` [Compound 34, 3-Amino-6-methyl-4-thiophen-2-yl-5,6,7,8-tetrahydro-thieno[2,3-b][1,6]naphthyridine-2-carboxylic acid phenylamide], the EC50 under setting [1] was under 5 µM.

On to `CN1CCc2nc3sc(C(=O)Nc4ccc(C(C)(C)C)cc4)c(N)c3cc2C1` [Compound 35, 3-Amino-6-methyl-5,6,7,8-tetrahydro-thieno[2,3-b][1,6]naphthyridine-2-carboxylic acid (4-tert-butyl-phenyl)-amide], for which, under setting [1], the EC50 is under 5 µM.

Take `CN1CCc2nc3sc(C(=O)Nc4ccc(Cl)cc4)c(N)c3c(-c3cccs3)c2C1` [Compound 36, 3-Amino-6-methyl-4-thiophen-2-yl-5,6,7,8-tetrahydro-thieno[2,3-b][1,6]naphthyridine-2-carboxylic acid (4-chloro-phenyl)-amide]: the EC50 under setting [1] was under 5 µM.

In the case of `COc1ccc(Cl)cc1NC(=O)c1sc2nc3c(cc2c1N)CN(C)CC3` [Compound 37, 3-Amino-6-methyl-5,6,7,8-tetrahydro-thieno[2,3-b][1,6]naphthyridine-2-carboxylic acid (5-chloro-2-methoxy-phenyl)-amide], the concentration for a half-maximal effect (EC50) under setting [1] was under 5 µM.

As for `CN1CCc2nc3sc(C(=O)Nc4ccccc4F)c(N)c3cc2C1` [Compound 38, 3-Amino-6-methyl-5,6,7,8-tetrahydro-thieno[2,3-b][1,6]naphthyridine-2-carboxylic acid (2-fluoro-phenyl)-amide], under setting [1], the EC50 was under 5 µM.

Turning to `Cc1csc(NC(=O)c2sc3nc4c(cc3c2N)CN(C)CC4)n1` [Compound 39, 3-Amino-6-methyl-5,6,7,8-tetrahydro-thieno[2,3-b][1,6]naphthyridine-2-carboxylic acid (4-methyl-thiazol-2-yl)-amide], the half-maximal effective concentration (EC50) under setting [1] was under 5 µM.

Consider `CCN1CCc2nc3sc(C(=O)Nc4ccccc4OC(F)(F)F)c(N)c3cc2C1` [Compound 40, 3-Amino-6-ethyl-5,6,7,8-tetrahydro-thieno[2,3-b][1,6]naphthyridine-2-carboxylic acid (2-trifluoromethoxy-phenyl)-amide], for which the half-maximal effective concentration (EC50) under setting [1] was under 5 µM.

Turning to `CCN1CCc2nc3sc(C(=O)Nc4cccnc4Cl)c(N)c3cc2C1` [Compound 41, 3-Amino-6-ethyl-5,6,7,8-tetrahydro-thieno[2,3-b][1,6]naphthyridine-2-carboxylic acid (2-chloro-pyridin-3-yl)-amide], the EC50 (Vero, 48 h) is under 5 µM.

As for `CN1CCc2nc3sc(C(=O)Nc4ccc(C(F)(F)F)cc4)c(N)c3cc2C1` [Compound 42, 3-Amino-6-methyl-5,6,7,8-tetrahydro-thieno[2,3-b][1,6]naphthyridine-2-carboxylic acid (4-trifluoromethyl-phenyl)-amide], under setting [1], the EC50 is under 5 µM.

Regarding `CC(=O)c1ccc(NC(=O)c2sc3nc4c(cc3c2N)CN(C)CC4)cc1` [Compound 43, 3-Amino-6-methyl-5,6,7,8-tetrahydro-thieno[2,3-b][1,6]naphthyridine-2-carboxylic acid (4-acetyl-phenyl)-amide], the EC50 under setting [1] was under 5 µM.

As to `CN1CCc2nc3sc(C(=O)Nc4cc(Cl)ccc4Cl)c(N)c3cc2C1` [Compound 44, 3-Amino-6-methyl-5,6,7,8-tetrahydro-thieno[2,3-b][1,6]naphthyridine-2-carboxylic acid (2,5-dichloro-phenyl)-amide], the EC50 under setting [1] is under 5 µM.

Regarding `Cc1ccc(NC(=O)c2sc3nc4c(cc3c2N)CN(C)CC4)cc1Cl` [Compound 45, 3-Amino-6-methyl-5,6,7,8-tetrahydro-thieno[2,3-b][1,6]naphthyridine-2-carboxylic acid (3-chloro-4-methyl-phenyl)-amide], the EC50 under setting [1] is under 5 µM.

Regarding `CN1CCc2nc3sc(C(=O)Nc4cccnc4Cl)c(N)c3cc2C1` [Compound 46, 3-Amino-6-methyl-5,6,7,8-tetrahydro-thieno[2,3-b][1,6]naphthyridine-2-carboxylic acid (2-chloro-pyridin-3-yl)-amide], the EC50 under setting [1] is under 5 µM.

As for `CC(NC(=O)c1sc2nc3c(cc2c1N)CN(C)CC3)[C@]12C[C@H]3C[C@H](C[C@H](C3)C1)C2` (stereo partly shown) [Compound 47, 3-Amino-6-methyl-5,6,7,8-tetrahydro-thieno[2,3-b][1,6]naphthyridine-2-carboxylic acid (1-adamantan-1-yl-ethyl)-amide], the EC50 under setting [1] is under 5 µM.

As for `CN1CCc2nc3sc(C(=O)Nc4ccccc4)c(N)c3cc2C1` [Compound 48, 3-Amino-6-methyl-5,6,7,8-tetrahydro-thieno[2,3-b][1,6]naphthyridine-2-carboxylic acid phenylamide], the EC50 under setting [1] was under 5 µM.

Take `CN1CCc2nc3sc(C(=O)Nc4ccccc4)c(N)c3c(-c3ccccc3)c2C1` [Compound 49, 3-Amino-6-methyl-4-phenyl-5,6,7,8-tetrahydro-thieno[2,3-b][1,6]naphthyridine-2-carboxylic acid phenylamide]: the concentration for a half-maximal effect (EC50) under setting [1] is under 5 µM.

Take `COc1ccc(NC(=O)c2sc3nc4c(c(-c5ccccc5)c3c2N)CN(C)CC4)cc1` [Compound 50, 3-Amino-6-methyl-4-phenyl-5,6,7,8-tetrahydro-thieno[2,3-b][1,6]naphthyridine-2-carboxylic acid (4-methoxy-phenyl)-amide]: the EC50 under setting [1] is under 5 µM.

In the case of `CC(=O)c1ccc(NC(=O)c2sc3nc4c(c(-c5ccccc5)c3c2N)CN(C)CC4)cc1` [Compound 51, 3-Amino-6-methyl-4-phenyl-5,6,7,8-tetrahydro-thieno[2,3-b][1,6]naphthyridine-2-carboxylic acid (4-acetyl-phenyl)-amide], the EC50 under setting [1] is under 5 µM.

Regarding `Nc1c(C(=O)Nc2nnc(-c3ccccc3)s2)sc2nc3c(cc12)CNCCC3` [Compound 52, 3-Amino-6,7,8,9-tetrahydro-5H-1-thia-6,10-diaza-cyclohepta[f]indene-2-carboxylic acid (5-phenyl-[1,3,4]thiadiazol-2-yl)-amide hydrochloride], under setting [1], the concentration for a half-maximal effect (EC50) is under 5 µM.

`Nc1c(C(=O)Nc2nnc(-c3ccccc3)s2)sc2nc3c(cc12)CCCC3` [Compound 53, 3-Amino-5,6,7,8-tetrahydro-thieno[2,3-b]quinoline-2-carboxylic acid (5-phenyl-[1,3,4]thiadiazol-2-yl)-amide]: the EC50 under setting [1] was under 5 µM.

Take `COc1ccc(-c2cc(-c3ccc(F)cc3)nc3sc(C(N)=O)c(N)c23)cc1OC` [Compound 54, 3-Amino-4-(3,4-dimethoxy-phenyl)-6-(4-fluoro-phenyl)-thieno[2,3-b]pyridine-2-carboxylic acid amide]: the EC50 under setting [1] is under 5 µM.

Regarding `Cc1csc(NC(=O)c2sc3nc(-c4cccs4)ccc3c2N)n1` [Compound 55, 3-Amino-6-thiophen-2-yl-thieno[2,3-b]pyridine-2-carboxylic acid (4-methyl-thiazol-2-yl)amide], the EC50 (Vero, 48 h) was under 5 µM.

`CC(=O)N1CCc2nc3sc(C(=O)Nc4ccc(C(C)(C)C)cc4)c(N)c3c(C(F)(F)F)c2C1` [Compound 56, 6-Acetyl-3-amino-4-trifluoromethyl-5,6,7,8-tetrahydro-thieno[2,3-b][1,6]naphthyridine-2-carboxylic acid (4-tert-butyl-phenyl)-amide]: the EC50 under setting [1] was under 5 µM.

On to `CCOC(=O)c1c(NC(=O)c2sc3nc4c(cc3c2N)CN(C)CC4)sc2c1CCCC2` [Compound 57, 2-[(3-Amino-6-methyl-5,6,7,8-tetrahydro-thieno[2,3-b][1,6]naphthyridine-2-carbonyl)-amino]-4,5,6,7-tetrahydro-benzo[b]thiophene-3-carboxylic acid ethyl ester], for which the 50% effective concentration (EC50) under setting [1] was under 5 µM.

Usually EC50 stands for the concentration at which the effect is half-maximal.

For the origin of these results see US20170121344A1 (Siga Technologies, Inc., priority 2009, published 2017).
